The values that follow come from patent publication US20250361202A1, “CALPAIN INHIBITOR” (GORYO CHEMICAL, INC., priority 2022, published 2025).

Each structure is given as a SMILES string.

The term IC50 denotes the concentration that gives 50% inhibition. Read a high IC50 as weaker potency.

Experiment [1] concerns the target T1, calpain-1 from human erythrocytes (Homo sapiens, UniProt P07384).
T1 construct: calpain-1 from human erythrocytes; purchased Merck Millipore 208713; host or cells: human erythrocytes
T1 sequence (P07384 1-714): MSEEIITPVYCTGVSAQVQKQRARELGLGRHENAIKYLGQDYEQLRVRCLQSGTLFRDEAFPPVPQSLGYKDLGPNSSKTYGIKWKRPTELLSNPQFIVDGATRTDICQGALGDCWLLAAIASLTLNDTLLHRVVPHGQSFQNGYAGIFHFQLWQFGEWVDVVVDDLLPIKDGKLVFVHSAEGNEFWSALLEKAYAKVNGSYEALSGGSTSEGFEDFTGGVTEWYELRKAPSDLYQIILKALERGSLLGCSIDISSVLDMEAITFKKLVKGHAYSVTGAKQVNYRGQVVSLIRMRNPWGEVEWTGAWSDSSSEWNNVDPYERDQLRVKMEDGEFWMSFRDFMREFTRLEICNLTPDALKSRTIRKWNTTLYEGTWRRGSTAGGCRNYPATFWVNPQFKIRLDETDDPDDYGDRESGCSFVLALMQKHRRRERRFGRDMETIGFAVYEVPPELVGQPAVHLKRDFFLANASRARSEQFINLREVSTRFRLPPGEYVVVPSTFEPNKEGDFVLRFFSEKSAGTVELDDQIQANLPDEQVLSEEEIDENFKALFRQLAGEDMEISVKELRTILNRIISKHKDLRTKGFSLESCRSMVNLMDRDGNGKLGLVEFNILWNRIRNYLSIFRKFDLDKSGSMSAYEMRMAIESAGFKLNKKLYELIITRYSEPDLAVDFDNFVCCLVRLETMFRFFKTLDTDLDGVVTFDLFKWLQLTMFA
T1 sequence (P04632 1-268 partner): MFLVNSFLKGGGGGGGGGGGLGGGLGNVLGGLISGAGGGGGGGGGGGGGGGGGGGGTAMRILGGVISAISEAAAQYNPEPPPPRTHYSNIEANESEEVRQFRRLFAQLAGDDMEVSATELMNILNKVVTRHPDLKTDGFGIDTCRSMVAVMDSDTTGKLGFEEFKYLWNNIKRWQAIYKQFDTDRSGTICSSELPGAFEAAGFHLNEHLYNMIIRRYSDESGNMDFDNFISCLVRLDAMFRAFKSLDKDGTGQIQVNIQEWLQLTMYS
In words: Calpain Inhibitory Activity Measurement 2 (HMRG fluorescent probe, various inhibitor concentrations, IC50). Format: biochemical. The conditions noted are these: fluorescent probe 5 μM; calpain-1 6.48 μg/mL; 37° C., 30 minutes; Tris buffer pH 7.4. As for the experimental part: Calpain-1 (calpain-1 from human erythrocytes, Cat. No. 208713, Merck Millipore) and a DMSO solution of a HMRG fluorescent probe for detecting calpain activity were added to each of 50 mM Tris buffers (pH: 7.4, 5 mM CaCl2), 2 mM DTE, 2 mM EGTA) containing various concentrations of SNJ-1945 or Compound 13 to perform fluorescence assays (the final concentration of the fluorescent probe was 5 μM, and the final concentration of calpain-1 was 6.48 μg/mL). […] The results are shown in FIG. 2 (concentrations shown in the figure each represent the final concentration of SNJ-1945 or Compound 13 in each assay). The following compound was used as the probe for detecting calpain activity.
An IC50 was determined on the basis of a graph produced with data analysis software “KaleidaGraph”. As a result, the IC50 of Compound 13 was 0.010 μM, and the IC50 of SNJ-1945 was 0.040 μM.

The target of experiment [2] is T2, calpain (calpain-1) in the kit (Homo sapiens, UniProt P07384).
T2 construct: purchased AnaSpec, Inc. AS-72149
T2 sequence (P07384 1-714): T1 sequence (P07384 1-714)
T2 sequence (P04632 1-268 partner): T1 sequence (P04632 1-268 partner)
As to the kind of experiment: Calpain Inhibitory Activity Measurement 1 (SensorLyte 520 Calpain Activity Assay Kit, 5-FAM/QXL 520 substrate). Format: biochemical. As to conditions: inhibitor 0.062 μM; 5-FAM/QXL 520 5.0 μM; 37° C., 25 minutes; compared with SNJ-1945. As for the experimental part: Calpain inhibitory activity was measured with SensorLyte™ 520 Calpain Activity Asay Kit (AnaSpec, Inc., AS-72149) in conformity with a method described in its assay protocol. SNJ-1945 (Medkoo Biosciences, Inc., Cat #564979), Compound 13, Compound 14, Compound 18, or Compound 19 serving as a calpain inhibitor and a calpain (calpain-1) in the kit were mixed with each other in Assay Buffer, and the mixture was incubated at 37° C. for 3 minutes. 5-FAM/QXL™ 520 serving as a calpain enzyme substrate was added to the incubated product to perform an enzyme reaction by the calpain at 37° C. for 25 minutes (the final concentration of each inhibitor was 0.062 μM, and the final concentration of 5-FAM/QXL™ 520 was 5.0 μM). In the enzyme reaction, the enzyme substrate is cleaved by the calpain to emit fluorescence. The emission fluorescence intensity of the substrate was detected with a plate reader (Infinite™ 200 PRO, TECAN) (at an excitation wavelength of 490 nm and a fluorescence wavelength of 520 nm). SNJ-1945 is a known calpain inhibitor, and has the following structure.

In experiment [1], `COCC(=O)N[C@@H](CC(C)C)C(=O)N[C@@H](Cc1ccccc1)C(=O)C(=O)NC1CC1` [Compound 13] returned an IC50 of 10 nM. The “enzyme inhibitory activity on the calpain (fluorescence increase amount, FIG. 1)” value in experiment [2] is on record as “stronger than that of SNJ-1945”.
`COCCOCCOC(=O)N[C@@H](CC(C)C)C(=O)N[C@@H](Cc1ccccc1)C(=O)C(=O)NC1CC1` [SNJ-1945, reference compound] displayed an IC50 in experiment [1] of 40 nM. Also, the “enzyme inhibitory activity on the calpain (fluorescence increase amount, FIG. 1)” value in experiment [2] is “inhibited”.
As for `COC(C)(C)C(=O)N[C@@H](CC(C)C)C(=O)N[C@@H](Cc1ccccc1)C(=O)C(=O)NC1CC1` [Compound 14], the “enzyme inhibitory activity on the calpain (fluorescence increase amount, FIG. 1)” value in experiment [2] is given as “stronger than that of SNJ-1945”.
Same read-out and setting: as for `COCCC(=O)N[C@@H](CC(C)C)C(=O)N[C@@H](Cc1ccccc1)C(=O)C(=O)NC1CC1` [Compound 19, reference compound], the entry is “comparable to that of SNJ-1945”.
Turning to `C#CCOCC(=O)N[C@@H](CC(C)C)C(=O)N[C@@H](Cc1ccccc1)C(=O)C(=O)NC1CC1` [Compound 18], the “enzyme inhibitory activity on the calpain (fluorescence increase amount, FIG. 1)” value in experiment [2] is “stronger than that of SNJ-1945”.
